The target of the assay is T1, G protein-coupled receptor 119 (GPR-119) (Mesocricetus auratus, UniProt A0A1U8CD06).
T1 construct: hamster-derived β-cells containing G protein-coupled receptor 119 (GPR-119), HIT-T15 cells; host or cells: HIT-T15 (hamster pancreatic β-cells)
T1 sequence (A0A1U8CD06 1-334): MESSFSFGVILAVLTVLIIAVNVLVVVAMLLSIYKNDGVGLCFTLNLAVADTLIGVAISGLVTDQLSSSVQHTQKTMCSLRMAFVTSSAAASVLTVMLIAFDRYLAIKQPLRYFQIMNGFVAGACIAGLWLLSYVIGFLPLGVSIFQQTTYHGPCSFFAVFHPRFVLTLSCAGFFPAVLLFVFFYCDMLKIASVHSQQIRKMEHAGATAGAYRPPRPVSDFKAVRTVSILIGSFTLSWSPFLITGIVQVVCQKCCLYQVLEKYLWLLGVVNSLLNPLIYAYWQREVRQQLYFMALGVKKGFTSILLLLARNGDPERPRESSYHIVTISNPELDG
In words: Evaluation of cAMP activity in HIT-T15 cells (HTRF cAMP dynamic kit). The format is cell-based, hamster. The settings on record: cAMP activation. The method in brief: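 HIT-T15 cells, 60,000/well, treated next day with compound at six concentrations ([…]) for 1 h at 37° C. Lysate cAMP quantified by HTRF competitive immunoassay (D2-cAMP, cryptate anti-cAMP); activity taken as change in FRET signal relative to DMSO.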

[1] abbreviates: 1 h at 37° C., six concentrations, read-out: EC50.

The text below walks through data of patent US9758527B2, “Cyclohexene derivative, preparation method therefor, and pharmaceutical composition for preventing or treating metabolic diseases, containing same as active ingredient” (HYUNDAI PHARM CO., LTD., priority 2014, dated 2017).

Read-outs that look alike come from different tables or passages of the source.

For the molecule `CCN1CCN(C(=O)C2CC=C(c3ccc(OCC4CCN(c5nc(C(C)C)no5)CC4)cc3)CC2)CC1` (stereo not drawn) [Example 79, (4-ethylpiperazin-1-yl)(4-(4-((1-(3-isopropyl-1,2,4-oxadiazol-5-yl)piperidin-4-yl)methoxy)phenyl)cyclohex-3-enyl)methanone], the EC50 is, setting by setting: under setting [1], 0.049 µM; (read-out: EC50 value) not above 0.05 µM.

Take `CC(C)c1noc(N2CCC(COc3ccc(C4=CCC(C(=O)N(C)CCO)CC4)cc3F)CC2)n1` (stereo not drawn) [Example 81, 4-(3-fluoro-4-((1-(3-isopropyl-1,2,4-oxadiazol-5-yl)piperidin-4-yl)methoxy)phenyl)-N-(2-hydroxyethyl)-N-methylcyclohex-3-enecarboxamide]: the EC50 was 0.009 µM under setting [1] and not above 0.05 µM (read-out: EC50 value). Taken in the same sequence, the figures for `CC(C)(CO)CNC(=O)C1CC=C(c2ccc(OCC3CCN(C(=O)OC(C)(C)C)CC3)c(F)c2)CC1` (stereo not drawn) [Example 82, tert-butyl 4-((2-fluoro-4-(4-(3-hydroxy-2,2-dimethylpropylcarbamoyl)cyclohex-1-enyl)phenoxy)methyl)piperidine-1-carboxylate] were 0.009 µM and not above 0.05 µM. In the case of `CC(C)c1noc(N2CCC(COc3ccc(C4=CCC(C(=O)N[C@@H](C)CO)CC4)cc3F)CC2)n1` (stereo partly drawn) [Example 83, 4-(3-fluoro-4-((1-(3-isopropyl-1,2,4-oxadiazol-5-yl)piperidin-4-yl)methoxy)phenyl)-N-((S)-1-hydroxypropan-2-yl)cyclohex-3-enecarboxamide], the EC50 under setting [1] turned out to be 0.075 µM. `CC(C)c1noc(N2CCC(COc3ccc(C4=CCC(C(=O)N[C@H](C)CO)CC4)cc3F)CC2)n1` (stereo partly drawn) [Example 84, 4-(3-fluoro-4-((1-(3-isopropyl-1,2,4-oxadiazol-5-yl)piperidin-4-yl)methoxy)phenyl)-N-((R)-1-hydroxypropan-2-yl)cyclohex-3-enecarboxamide]: the EC50 runs as follows: under setting [1], 0.03 µM; (read-out: EC50 value) not above 0.05 µM.

Take `CC(C)(C)OC(=O)N1CCC(COc2ccc(C3=CCC(C(=O)NCC(F)F)CC3)cc2F)CC1` (stereo not drawn) [Example 85, tert-butyl 4-((4-(4-(2,2-difluoroethylcarbamoyl)cyclohex-1-enyl)-2-fluorophenoxy)methyl)piperidine-1-carboxylate]: the EC50 is, setting by setting: under setting [1], 0.018 µM; (read-out: EC50 value) not above 0.05 µM. Regarding `CC(C)(C)OC(=O)N1CCC(COc2ccc(C3=CCC(C(=O)NCC(F)(F)F)CC3)cn2)CC1` (stereo not drawn) [Example 86, tert-butyl 4-((5-(4-(2,2,2-trifluoroethylcarbamoyl)cyclohex-1-enyl)pyridin-2-yloxy)methyl)piperidine-1-carboxylate], the concentration for a half-maximal effect (EC50) under setting [1] is 0.13 µM. Take `CC(C)(C)OC(=O)N1CCC(COc2ccc(C3=CCC(C(=O)NCC(F)F)CC3)cn2)CC1` (stereo not drawn) [Example 87, tert-butyl 4-((5-(4-(2,2-difluoroethylcarbamoyl)cyclohex-1-enyl)pyridin-2-yloxy)methyl)piperidine-1-carboxylate]: the EC50 under setting [1] was 0.07 µM. On to `CC(C)(C)OC(=O)N1CCC(COc2ccc(C3=CCC(C(=O)NCCF)CC3)cn2)CC1` (stereo not drawn) [Example 88, tert-butyl 4-((5-(4-(2-fluoroethylcarbamoyl)cyclohex-1-enyl)pyridin-2-yloxy)methyl)piperidine-1-carboxylate], for which the EC50 under setting [1] worked out at 0.13 µM. Turning to `CC(C)c1noc(N2CCC(COc3ccc(C4=CCC(C(=O)N5CCN(C6CC6)CC5)CC4)cc3)CC2)n1` (stereo not drawn) [Example 89, (4-cyclopropylpiperazin-1-yl)(4-(4-((1-(3-isopropyl-1,2,4-oxadiazol-5-yl)piperidin-4-yl)methoxy)phenyl)cyclohex-3-enyl)methanone], the EC50 reads like this: under setting [1], 0.021 µM; (read-out: EC50 value) not above 0.05 µM.

As for `CC(C)(C)OC(=O)N1CCC(COc2ccc(C3=CCC(C(=O)N4CC[C@@H](F)C4)CC3)cn2)CC1` (stereo partly drawn) [Example 90, tert-butyl 4-((5-(4-((R)-3-fluoropyrrolidine-1-carbonyl)cyclohex-1-enyl)pyridin-2-yloxy)methyl)piperidine-1-carboxylate], the EC50 under setting [1] was found to be 0.024 µM and the EC50 (read-out: EC50 value) was not above 0.05 µM. `CC(C)(C)OC(=O)N1CCC(COc2ccc(C3=CCC(C(=O)N4CC[C@H](F)C4)CC3)cn2)CC1` (stereo partly drawn) [Example 91, tert-butyl 4-((5-(4-((S)-3-fluoropyrrolidine-1-carbonyl)cyclohex-1-enyl)pyridin-2-yloxy)methyl)piperidine-1-carboxylate]: the EC50 under setting [1] is 0.028 µM and the EC50 (read-out: EC50 value) is not above 0.05 µM. As to `CC(C)c1noc(N2CCC(COc3ccc(C4=CCC(C(=O)NCC(F)(F)F)CC4)cc3F)CC2)n1` (stereo not drawn) [Example 92, 4-(3-fluoro-4-((1-(3-isopropyl-1,2,4-oxadiazol-5-yl)piperidin-4-yl)methoxy)phenyl)-N-(2,2,2-trifluoroethyl)cyclohex-3-enecarboxamide], the EC50 under setting [1] was determined as 0.064 µM. For the molecule `CC(C)c1noc(N2CCC(COc3ccc(C4=CCC(C(=O)NCC(F)F)CC4)cc3F)CC2)n1` (stereo not drawn) [Example 93, N-(2,2-difluoroethyl)-4-(3-fluoro-4-((1-(3-isopropyl-1,2,4-oxadiazol-5-yl)piperidin-4-yl)methoxy)phenyl)cyclohex-3-enecarboxamide], the concentration giving a half-maximal response (EC50) by setting is: under setting [1], 0.05 µM; (read-out: EC50 value) not above 0.05 µM. For the molecule `CC(C)c1noc(N2CCC(COc3ccc(C4=CCC(C(=O)NCCF)CC4)cc3F)CC2)n1` (stereo not drawn) [Example 94, 4-(3-fluoro-4-((1-(3-isopropyl-1,2,4-oxadiazol-5-yl)piperidin-4-yl)methoxy)phenyl)-N-(2-fluoroethyl)cyclohex-3-enecarboxamide], the EC50 under setting [1] was 0.068 µM. In the case of `CC(C)c1noc(N2CCC(COc3ccc(C4=CCC(C(=O)N5CC[C@H](F)C5)CC4)cc3F)CC2)n1` (stereo partly drawn) [Example 95, (4-(3-fluoro-4-((1-(3-isopropyl-1,2,4-oxadiazol-5-yl)piperidin-4-yl)methoxy)phenyl)cyclohex-3-enyl)((S)-3-fluoropyrrolidin-1-yl)methanone], the EC50 under setting [1] amounted to 0.016 µM. Take `CC(C)c1noc(N2CCC(COc3ccc(C4=CCC(C(=O)N5CC[C@@H](F)C5)CC4)cc3F)CC2)n1` (stereo partly drawn) [Example 96, (4-(3-fluoro-4-((1-(3-isopropyl-1,2,4-oxadiazol-5-yl)piperidin-4-yl)methoxy)phenyl)cyclohex-3-enyl)((R)-3-fluoropyrrolidin-1-yl)methanone]: the EC50 is 0.027 µM under setting [1] and not above 0.05 µM (read-out: EC50 value). The corresponding values for `CC(C)c1noc(N2CCC(COc3ccc(C4=CCC(C(=O)N5CCOCC5)CC4)cc3F)CC2)n1` (stereo not drawn) [Example 97, (4-(3-fluoro-4-((1-(3-isopropyl-1,2,4-oxadiazol-5-yl)piperidin-4-yl)methoxy)phenyl)cyclohex-3-enyl)(morpholino)methanone] are 0.0084 µM and not above 0.05 µM.

For `CC(C)c1noc(N2CCC(COc3ccc(C4=CCC(C(=O)N5CCSCC5)CC4)cc3F)CC2)n1` (stereo not drawn) [Example 98, (4-(3-fluoro-4-((1-(3-isopropyl-1,2,4-oxadiazol-5-yl)piperidin-4-yl)methoxy)phenyl)cyclohex-3-enyl)(thiomorpholino)methanone], the EC50 reads like this: under setting [1], 0.0061 µM; (read-out: EC50 value) not above 0.05 µM. `CC(C)c1noc(N2CCC(COc3ccc(C4=CCC(C(=O)NCC(F)F)CC4)nc3)CC2)n1` (stereo not drawn) [Example 99, N-(2,2-difluoroethyl)-4-(5-((1-(3-isopropyl-1,2,4-oxadiazol-5-yl)piperidin-4-yl)methoxy)pyridin-2-yl)cyclohex-3-enecarboxamide]: the EC50 under setting [1] was 0.16 µM. Consider `CC(C)c1noc(N2CCC(COc3ccc(C4=CCC(C(=O)N5CCOCC5)CC4)nc3)CC2)n1` (stereo not drawn) [Example 100, (4-(5-((1-(3-isopropyl-1,2,4-oxadiazol-5-yl)piperidin-4-yl)methoxy)pyridin-2-yl)cyclohex-3-enyl)(morpholino)methanone], for which the half-maximal effective concentration (EC50) under setting [1] worked out at 0.095 µM. On to `CC(C)c1noc(N2CCC(COc3ccc(C4=CCC(C(=O)N5CC[C@@H](F)C5)CC4)nc3)CC2)n1` (stereo partly drawn) [Example 101, ((R)-3-fluoropyrrolidin-1-yl)(4-(5-((1-(3-isopropyl-1,2,4-oxadiazol-5-yl)piperidin-4-yl)methoxy)pyridin-2-yl)cyclohex-3-enyl)methanone], for which the EC50 under setting [1] is 0.11 µM.

As to `CC(C)c1noc(N2CCC(COc3ccc(C4=CCC(C(=O)N5CC[C@H](F)C5)CC4)nc3)CC2)n1` (stereo partly drawn) [Example 102, ((S)-3-fluoropyrrolidin-1-yl)(4-(5-((1-(3-isopropyl-1,2,4-oxadiazol-5-yl)piperidin-4-yl)methoxy)pyridin-2-yl)cyclohex-3-enyl)methanone], the EC50 under setting [1] was 0.052 µM.

With `CCc1cnc(N2CCC(COc3ccc(C4=CCC(C(=O)NCC(F)(F)F)CC4)cc3)CC2)nc1` (stereo not drawn) [Example 103, 4-(4-((1-(5-ethylpyrimidin-2-yl)piperidin-4-yl)methoxy)phenyl)-N-(2,2,2-trifluoroethyl)cyclohex-3-enecarboxamide], the EC50 under setting [1] stood at 0.075 µM.

Consider `CCc1cnc(N2CCC(COc3ccc(C4=CCC(C(=O)NCCF)CC4)cc3)CC2)nc1` (stereo not drawn) [Example 104, 4-(4-((1-(5-ethylpyrimidin-2-yl)piperidin-4-yl)methoxy)phenyl)-N-(2-fluoroethyl)cyclohex-3-enecarboxamide], for which, under setting [1], the EC50 amounted to 0.07 µM. Consider `CCc1cnc(N2CCC(COc3ccc(C4=CCC(C(=O)N5CCC[C@H]5C(N)=O)CC4)cc3)CC2)nc1` (stereo partly drawn) [Example 105, (2S)-1-(4-(4-((1-(5-ethylpyrimidin-2-yl)piperidin-4-yl)methoxy)phenyl)cyclohex-3-enecarbonyl)pyrrolidine-2-carboxamide], for which the EC50 was 0.043 µM under setting [1] and not above 0.05 µM (read-out: EC50 value).

For orientation: EC50 means the concentration needed to bring the measured effect to its halfway point.
